Measured values published in BindingDB's records for PubMed 7518514 (Abbott Laboratories, 1994).

Key:
[1] = target: Substance-K receptor (Bos taurus, UniProt P05363)
[2] = target: Solute carrier family 22 member 1 (Rattus norvegicus, UniProt Q63089)
[3] = target: 5-hydroxytryptamine receptor 2A (Sus scrofa, UniProt P50129)
[4] = target: Chloride channel protein 1 (Homo sapiens, UniProt P35523)
[5] = target: Sodium-dependent noradrenaline transporter (Homo sapiens, UniProt P23975)
[6] = target: D(1A) dopamine receptor (Homo sapiens, UniProt P21728)
[7] = target: Sodium-dependent dopamine transporter (Homo sapiens, UniProt Q01959)
Chain of Sodium-dependent dopamine transporter (Q01959 whole entry): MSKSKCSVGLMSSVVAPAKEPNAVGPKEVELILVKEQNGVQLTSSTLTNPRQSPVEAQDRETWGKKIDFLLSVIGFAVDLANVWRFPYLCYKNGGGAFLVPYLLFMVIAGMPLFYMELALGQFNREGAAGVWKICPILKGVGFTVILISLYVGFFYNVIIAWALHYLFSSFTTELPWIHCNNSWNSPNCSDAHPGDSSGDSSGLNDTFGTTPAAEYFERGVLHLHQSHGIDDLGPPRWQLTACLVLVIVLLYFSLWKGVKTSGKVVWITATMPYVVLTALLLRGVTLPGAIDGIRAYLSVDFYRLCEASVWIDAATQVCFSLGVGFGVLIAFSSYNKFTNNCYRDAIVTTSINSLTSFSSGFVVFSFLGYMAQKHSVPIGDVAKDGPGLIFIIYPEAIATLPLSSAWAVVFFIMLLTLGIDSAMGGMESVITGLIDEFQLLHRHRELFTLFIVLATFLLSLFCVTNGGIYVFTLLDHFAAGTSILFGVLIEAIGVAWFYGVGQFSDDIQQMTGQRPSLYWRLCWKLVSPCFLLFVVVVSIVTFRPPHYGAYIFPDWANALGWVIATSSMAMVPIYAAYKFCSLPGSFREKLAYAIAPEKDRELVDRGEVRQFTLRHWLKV

[8] = target: Glutamate receptor ionotropic, kainate 2 (Homo sapiens, UniProt Q13002)
Chain of Glutamate receptor ionotropic, kainate 2 (Q13002 whole entry): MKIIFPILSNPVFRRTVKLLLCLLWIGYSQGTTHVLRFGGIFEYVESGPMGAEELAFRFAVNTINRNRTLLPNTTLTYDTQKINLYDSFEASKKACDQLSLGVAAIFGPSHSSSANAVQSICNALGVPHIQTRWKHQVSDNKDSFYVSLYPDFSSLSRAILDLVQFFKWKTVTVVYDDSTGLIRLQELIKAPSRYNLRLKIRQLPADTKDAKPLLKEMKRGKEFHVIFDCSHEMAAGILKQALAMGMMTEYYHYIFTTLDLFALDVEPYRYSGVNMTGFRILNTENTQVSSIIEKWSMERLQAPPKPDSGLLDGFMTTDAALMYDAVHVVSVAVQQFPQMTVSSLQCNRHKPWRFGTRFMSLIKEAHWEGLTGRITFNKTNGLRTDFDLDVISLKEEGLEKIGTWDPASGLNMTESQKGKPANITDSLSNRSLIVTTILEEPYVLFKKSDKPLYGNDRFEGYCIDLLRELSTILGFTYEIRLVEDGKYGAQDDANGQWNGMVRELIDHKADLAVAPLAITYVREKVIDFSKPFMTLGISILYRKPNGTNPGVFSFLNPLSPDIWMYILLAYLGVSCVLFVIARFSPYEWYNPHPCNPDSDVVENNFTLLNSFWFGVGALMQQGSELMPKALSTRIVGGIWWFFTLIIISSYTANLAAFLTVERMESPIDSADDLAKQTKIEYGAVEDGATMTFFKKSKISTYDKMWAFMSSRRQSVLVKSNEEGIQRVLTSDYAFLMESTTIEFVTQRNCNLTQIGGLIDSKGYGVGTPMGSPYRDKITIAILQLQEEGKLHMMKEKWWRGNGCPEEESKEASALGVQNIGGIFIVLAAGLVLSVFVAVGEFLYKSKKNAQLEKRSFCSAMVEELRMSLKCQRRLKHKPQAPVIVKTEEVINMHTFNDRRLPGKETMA

[9] = target: Glutamate receptor ionotropic, NMDA 1 (Rattus norvegicus, UniProt P35439)
[10] = target: Outer capsid protein sigma-1 (Reovirus type 3 (strain Dearing), UniProt P03528)
[11] = target: Beta-nerve growth factor (Homo sapiens, UniProt P01138)
Chain of Beta-nerve growth factor (P01138 122-241 limits assumed): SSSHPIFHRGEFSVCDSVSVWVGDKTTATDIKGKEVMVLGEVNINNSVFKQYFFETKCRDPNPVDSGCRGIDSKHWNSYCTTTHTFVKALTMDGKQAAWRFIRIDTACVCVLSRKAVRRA

[12] = target: Muscarinic acetylcholine receptor M1 (Mus musculus, UniProt P12657)
Chain of Muscarinic acetylcholine receptor M1 (P12657 whole entry): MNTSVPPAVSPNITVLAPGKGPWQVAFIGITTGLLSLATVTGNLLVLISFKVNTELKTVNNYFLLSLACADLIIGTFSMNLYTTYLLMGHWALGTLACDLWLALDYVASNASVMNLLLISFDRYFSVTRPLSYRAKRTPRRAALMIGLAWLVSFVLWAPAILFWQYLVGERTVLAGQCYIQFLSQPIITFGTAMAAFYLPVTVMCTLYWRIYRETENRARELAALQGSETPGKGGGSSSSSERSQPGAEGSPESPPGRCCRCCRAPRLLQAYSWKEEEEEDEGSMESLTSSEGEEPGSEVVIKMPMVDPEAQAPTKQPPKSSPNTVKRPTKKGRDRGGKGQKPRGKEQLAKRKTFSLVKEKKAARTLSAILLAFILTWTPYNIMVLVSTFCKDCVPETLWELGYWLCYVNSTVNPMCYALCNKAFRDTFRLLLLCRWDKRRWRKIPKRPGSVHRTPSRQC

[13] = target: Histamine H1 receptor (Homo sapiens, UniProt P35367)
[14] = target: Substance-P receptor (Homo sapiens, UniProt P25103)
[15] = target: Beta-2 adrenergic receptor (Mus musculus, UniProt P18762)
Chain of Beta-2 adrenergic receptor (P18762 whole entry): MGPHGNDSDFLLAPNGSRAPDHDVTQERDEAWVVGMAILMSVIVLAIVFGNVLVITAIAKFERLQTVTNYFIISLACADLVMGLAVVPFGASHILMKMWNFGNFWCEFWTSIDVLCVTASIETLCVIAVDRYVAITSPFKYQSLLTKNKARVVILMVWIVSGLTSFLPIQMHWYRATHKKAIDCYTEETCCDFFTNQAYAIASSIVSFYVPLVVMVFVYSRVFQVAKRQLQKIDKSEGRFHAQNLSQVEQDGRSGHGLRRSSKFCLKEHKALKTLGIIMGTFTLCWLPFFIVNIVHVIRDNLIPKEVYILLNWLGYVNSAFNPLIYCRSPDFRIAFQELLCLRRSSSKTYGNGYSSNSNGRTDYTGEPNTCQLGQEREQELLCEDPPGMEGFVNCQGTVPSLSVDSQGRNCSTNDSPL

[16] = target: Inositol-tetrakisphosphate 1-kinase (Homo sapiens, UniProt Q13572)
[17] = target: Adenosine receptor A1 (Homo sapiens, UniProt P30542)
[18] = target: VIP peptides (Homo sapiens, UniProt P01282)
Chain of VIP peptides (P01282 125-152 limits assumed): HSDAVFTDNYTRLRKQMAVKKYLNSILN

[19] = target: Glutamate receptor 3 (Homo sapiens, UniProt P42263)
[20] = target: Protein kinase C (Drosophila melanogaster, UniProt P13678)
[21] = target: Adenosine receptor A2a (Homo sapiens, UniProt P29274)
[22] = target: Adrenergic alpha2 receptor (Mesocricetus auratus, UniProt Q60533)
Chain of Adrenergic alpha2 receptor (Q60533 whole entry): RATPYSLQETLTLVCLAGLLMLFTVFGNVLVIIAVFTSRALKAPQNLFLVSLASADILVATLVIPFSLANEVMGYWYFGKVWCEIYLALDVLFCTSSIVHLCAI

[23] = target: D(2) dopamine receptor (Homo sapiens, UniProt P14416)
[24] = target: Voltage-dependent N-type calcium channel subunit alpha-1B (Rattus norvegicus, UniProt Q02294)
[25] = target: GLRA1 protein (Homo sapiens, UniProt Q14C71)
Chain of GLRA1 protein (Q14C71 whole entry): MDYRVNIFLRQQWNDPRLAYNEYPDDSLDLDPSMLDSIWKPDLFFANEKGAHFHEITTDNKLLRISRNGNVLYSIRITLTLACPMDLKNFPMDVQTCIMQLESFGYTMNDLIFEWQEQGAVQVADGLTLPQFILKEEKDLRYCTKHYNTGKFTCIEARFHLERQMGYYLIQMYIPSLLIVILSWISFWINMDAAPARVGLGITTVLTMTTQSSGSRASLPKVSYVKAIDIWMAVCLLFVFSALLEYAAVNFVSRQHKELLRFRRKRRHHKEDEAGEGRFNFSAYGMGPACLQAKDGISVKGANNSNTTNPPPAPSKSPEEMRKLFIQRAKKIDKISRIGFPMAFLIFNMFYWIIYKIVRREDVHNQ

[26] = target: Voltage-dependent T-type calcium channel subunit alpha-1H (Homo sapiens, UniProt O95180)
[27] = target: Adenylate cyclase type 9 (Homo sapiens, UniProt O60503)
Chain of Adenylate cyclase type 9 (O60503 whole entry): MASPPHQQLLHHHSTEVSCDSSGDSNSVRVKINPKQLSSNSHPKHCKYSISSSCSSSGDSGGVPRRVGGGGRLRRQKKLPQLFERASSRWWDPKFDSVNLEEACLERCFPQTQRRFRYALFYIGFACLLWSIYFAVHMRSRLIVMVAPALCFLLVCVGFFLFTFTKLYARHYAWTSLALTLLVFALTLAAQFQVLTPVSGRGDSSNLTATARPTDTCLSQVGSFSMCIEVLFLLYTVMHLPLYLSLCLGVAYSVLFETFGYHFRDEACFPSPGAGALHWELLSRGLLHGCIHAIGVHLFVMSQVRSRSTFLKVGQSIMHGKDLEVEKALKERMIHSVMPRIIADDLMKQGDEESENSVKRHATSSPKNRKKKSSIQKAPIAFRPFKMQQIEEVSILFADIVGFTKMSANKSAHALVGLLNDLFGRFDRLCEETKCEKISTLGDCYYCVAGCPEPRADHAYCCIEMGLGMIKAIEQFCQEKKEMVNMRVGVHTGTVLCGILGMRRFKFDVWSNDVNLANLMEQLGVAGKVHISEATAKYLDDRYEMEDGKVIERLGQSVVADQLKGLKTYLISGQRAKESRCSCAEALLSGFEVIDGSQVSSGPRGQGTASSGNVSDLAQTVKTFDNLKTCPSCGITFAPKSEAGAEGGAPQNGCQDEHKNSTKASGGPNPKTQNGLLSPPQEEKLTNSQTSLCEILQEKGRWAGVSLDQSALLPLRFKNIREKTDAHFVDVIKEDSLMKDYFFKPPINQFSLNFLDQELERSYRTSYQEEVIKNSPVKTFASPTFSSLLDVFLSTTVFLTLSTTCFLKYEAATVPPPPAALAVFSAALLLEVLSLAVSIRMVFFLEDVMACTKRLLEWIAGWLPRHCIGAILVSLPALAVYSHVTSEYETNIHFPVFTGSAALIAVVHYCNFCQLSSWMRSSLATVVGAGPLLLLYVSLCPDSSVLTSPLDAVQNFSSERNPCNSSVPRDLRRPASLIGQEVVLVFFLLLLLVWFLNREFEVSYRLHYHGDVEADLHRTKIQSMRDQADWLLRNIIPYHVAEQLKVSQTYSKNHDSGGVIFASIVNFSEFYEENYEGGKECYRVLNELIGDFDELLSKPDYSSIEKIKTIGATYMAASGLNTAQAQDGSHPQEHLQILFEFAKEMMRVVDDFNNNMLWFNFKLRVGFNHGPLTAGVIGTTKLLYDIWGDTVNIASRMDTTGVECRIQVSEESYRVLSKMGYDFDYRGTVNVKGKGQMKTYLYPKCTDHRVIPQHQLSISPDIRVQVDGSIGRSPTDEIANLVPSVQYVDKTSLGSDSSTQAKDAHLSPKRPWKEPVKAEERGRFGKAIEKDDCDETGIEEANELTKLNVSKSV

[28] = target: Gamma-aminobutyric acid receptor subunit alpha-1 (Homo sapiens, UniProt P14867)
Chain of Gamma-aminobutyric acid receptor subunit alpha-1 (P14867 whole entry): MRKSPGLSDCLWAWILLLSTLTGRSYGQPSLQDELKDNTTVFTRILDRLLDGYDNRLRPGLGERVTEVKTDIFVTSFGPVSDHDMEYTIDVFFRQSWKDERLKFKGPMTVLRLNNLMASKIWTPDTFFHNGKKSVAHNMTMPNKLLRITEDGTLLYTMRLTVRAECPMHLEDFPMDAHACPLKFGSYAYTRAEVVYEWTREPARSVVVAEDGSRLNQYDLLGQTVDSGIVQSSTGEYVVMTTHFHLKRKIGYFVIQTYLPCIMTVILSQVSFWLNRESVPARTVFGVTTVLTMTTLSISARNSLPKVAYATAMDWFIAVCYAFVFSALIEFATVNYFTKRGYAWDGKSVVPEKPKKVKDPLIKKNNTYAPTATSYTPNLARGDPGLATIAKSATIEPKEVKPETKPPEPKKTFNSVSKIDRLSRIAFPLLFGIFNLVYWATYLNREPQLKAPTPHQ

[29] = target: Type-2 angiotensin II receptor (Homo sapiens, UniProt P50052)
[30] = target: Apamin (Apis mellifera, UniProt P01500)
[31] = target: Gamma-aminobutyric acid type B receptor subunit 1 (Homo sapiens, UniProt Q9UBS5)
[32] = target: 5-hydroxytryptamine receptor 1A/1B/1D/2C (Homo sapiens, UniProt P08908+P28221+P28222+P28335)
[33] = target: 5-hydroxytryptamine receptor 3A (Homo sapiens, UniProt P46098)

Measured: Ki

Cc1cc([C@@H]2CCCN2C)on1 [ABT-418]
> 10 µM: [1] | [2] | [3] | [4] | [5] | [6] | [7] | [8] | [9] | [10] | [11] | [12] | [13] | [14] | [15] | [16] | [17] | [18] | [19] | [20] | [21] | [22] | [23] | [24] | [25] | [26] | [27] | [28] | [29] | [30] | [31] | [32] | [33]
